For this experiment, the system named is 439559-082-T-J2-PDC spheroids viability. The experiment in a line: Anticancer human tumor 439559-082-T-J2-PDC patient-derived colon adenocarcinoma cell line growth inhibition [GQUAD]. To be noted: for viability, T/C: stronger effect = lower value. The source says: DNA G-quadruplex Stabilizer Agents in Combinations in Complex Spheroids
A high-throughput screen of multi-cell type tumor spheroids was designed to identify active combinations of DNA G-quadruplex stabilizer agents and targeted small molecules. Complex spheroids include a stromal component modeled by human endothelial cells (HUVEC) and fibroblasts modeled by human mesenchymal stem cells (MSCs). The concentration ranges selected for each drug and investigational agent were based upon clinically achievable concentrations if the clinical Cmax of the agent was known.
Compounds. The drugs and investigational agents: pidnarulex (CX-5461; NSC782164), APTO-253 (NSC789042), BRACO-19 (NSC847499), peposertib (NSC802822), ceralasertib (NSC780249), elimusertib (NSC800525), camonsertib (NSC841442), AZD-1390 (NSC803789), olaparib (NSC753686), talazoparib (NSC767125), ART-558 (NSC835418), sotorasib (NSC818433), MRTX-1133 (NSC836407), SN-38 (NSC673596), topotecan (NSC609699), etoposide (NSC141540), doxorubicin (NSC123127), gemcitabine (NSC613327), 5-fluorouracil (NSC19893), paclitaxel (NSC125973), vemurafenib (NSC761431), panobinostat (NSC761190), R-306465 (JNJ-16241199; NSC773264), adavosertib (NSC754352), TP-3654 (NSC805149), carboplatin (NSC241240), KSQ-4279 (NSC840948), and staurosporine (NSC755774) were obtained from the National Cancer Institute (NCI) Developmental Therapeutics Program Chemical Repository (34). The FDA-approved anticancer drug set is available from the NCI Developmental Therapeutics Program. […] The stock solutions were prepared in dimethyl sulfoxide (DMSO, Sigma-Aldrich, St. Louis, MO, cat. D2650) at 800-fold the tested concentration and stored at -70 degrees C prior to their use. All drugs and investigational agents were tested over a range starting from a high concentration at or near the clinical Cmax and decreasing in half-log increments. If the clinical Cmax for an agent had not been determined, the highest concentration tested was 10 microM.
2.3 Cell Culture. All cells were maintained in an incubator at 37 degrees C and 5% CO2 with 95% humidity. The PDC lines were cultured according to standard operating procedures established by the NCI PDMR. All PDCs were thawed and cultured in Matrigel-coated flasks prepared with a working solution of 1X Ham's F-12 nutrient mix, without supplementation (Invitrogen, cat. 11765054), 100 U/mL penicillin-streptomycin (Invitrogen, cat. 15140122), and 2.5% Matrigel (Corning Inc., cat. 354248) for the first three passages. The 857933-349-R-J2-PDC line was cultured in 6C/Colon 1B media, which includes advanced DMEM/F-12 (Thermo Fisher Scientific, cat. 12634028), 10 mM HEPES (Thermo Fisher Scientific, cat. 15630080), 1X GlutaMAX supplement (Thermo Fisher Scientific, cat. 35050061), 0.1 mg/mL primocin (InvivoGen, cat. ant-pm-2), 10% defined fetal bovine serum, heat inactivated (HyClone Laboratories Inc., cat. SH30070.03HI), 50% L-WRN conditioned media (ATCC, cat. CRL-3276), 1.25 mM N-Acetyl-L-cysteine (Sigma-Aldrich, cat. A9165), 10 mM nicotinamide (Sigma-Aldrich, cat. N0636), 1X B-27 supplement (Thermo Fisher Scientific, cat. 17504044), 1X N-2 supplement (Thermo Fisher Scientific, cat. 17502048), 10 microM Y-27632 dihydrochloride (Tocris Bioscience, cat. 1254), and 50 ng/mL human EGF recombinant protein (Thermo Fisher Scientific, cat. PHG0311). The 485176-168-R4-J1-PDC line was cultured in Panc media, which includes all 6C/Colon 1B media components plus 100 ng/mL human FGF-10 (Thermo Fisher Scientific, cat. 100-26), 500 nM SB-431542 (Selleckchem, cat. S1067), and gastrin (Tocris, cat. 3006).
[…]

Where [1] appears, read: curve of first compound, second compound 0.0316 µM.
Where [2] appears, read: curve of first compound, second compound 0.1 µM.
[3] abbreviates: curve of first compound, second compound 0.316 µM.
The mark [4] stands for this setting: curve of first compound, second compound 1 µM.
[5] abbreviates: curve of first compound, second compound 3.16 µM.
Where [6] appears, read: curve of first compound, second compound 10 µM.
The mark [7] stands for this setting: second compound 0.0316 µM, first compound 0.0316 µM.
[8] abbreviates: second compound 0.0316 µM, first compound 0.1 µM.
Setting [9] is: second compound 0.0316 µM, first compound 0.316 µM.
[10] abbreviates: second compound 0.0316 µM, first compound 1 µM.
Where [11] appears, read: second compound 0.0316 µM, first compound 3.16 µM.
Where [12] appears, read: second compound 0.0316 µM, first compound 10 µM.
Setting [13] is: second compound 0.1 µM, first compound 0.0316 µM.
[14] abbreviates: second compound 0.1 µM, first compound 0.1 µM.
Where [15] appears, read: second compound 0.1 µM, first compound 0.316 µM.
[16] abbreviates: second compound 0.1 µM, first compound 1 µM.
The mark [17] stands for this setting: second compound 0.1 µM, first compound 3.16 µM.
[18] abbreviates: second compound 0.1 µM, first compound 10 µM.
Where [19] appears, read: second compound 0.316 µM, first compound 0.0316 µM.
The mark [20] stands for this setting: second compound 0.316 µM, first compound 0.1 µM.
Setting [21] is: second compound 0.316 µM, first compound 0.316 µM.
The mark [22] stands for this setting: second compound 0.316 µM, first compound 1 µM.
[23] abbreviates: second compound 0.316 µM, first compound 3.16 µM.
Where [24] appears, read: second compound 0.316 µM, first compound 10 µM.
The mark [25] stands for this setting: second compound 1 µM, first compound 0.0316 µM.
Setting [26] is: second compound 1 µM, first compound 0.1 µM.
Where [27] appears, read: second compound 1 µM, first compound 0.316 µM.
[28] abbreviates: second compound 1 µM, first compound 1 µM.
[29] abbreviates: second compound 1 µM, first compound 3.16 µM.
Where [30] appears, read: second compound 1 µM, first compound 10 µM.
Where [31] appears, read: second compound 3.16 µM, first compound 0.0316 µM.
Setting [32] is: second compound 3.16 µM, first compound 0.1 µM.
Where [33] appears, read: second compound 3.16 µM, first compound 0.316 µM.
Where [34] appears, read: second compound 3.16 µM, first compound 1 µM.
Where [35] appears, read: second compound 3.16 µM, first compound 3.16 µM.
The mark [36] stands for this setting: second compound 3.16 µM, first compound 10 µM.
Setting [37] is: second compound 10 µM, first compound 0.0316 µM.
[38] abbreviates: second compound 10 µM, first compound 0.1 µM.
Where [39] appears, read: second compound 10 µM, first compound 0.316 µM.
Where [40] appears, read: second compound 10 µM, first compound 1 µM.
The mark [41] stands for this setting: second compound 10 µM, first compound 3.16 µM.
The mark [42] stands for this setting: second compound 10 µM, first compound 10 µM.

Molecules are shown by their SMILES. pIC50: −log10 of the molar value. Values joined by “and” are separate entries in the source; they are usually repeats but may differ in a detail not shown here. Identical values can stand only once.
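Note: spheroids exposed to the agents for 7 days before readout.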
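Throughout, for viability, T/C: percent of luminescence signal in DMSO vehicle wells taken as 100% viability.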

What is called viability, T/C is the ratio of treated to control. By pIC50 is commonly meant the negative decadic logarithm of the IC50, by convention in mol/L. Turning to `C=CCn1c(=O)c2cnc(Nc3ccc(N4CCN(C)CC4)cc3)nc2n1-c1cccc(C(C)(C)O)n1`, the viability, T/C is 109% and 94.2% and 108% (compound 0.0316 µM); 91.1% and 90.4% and 90.3% (compound 0.1 µM); 86.3% and 89.2% and 88% (compound 0.316 µM); 104% and 78.4% and 93.7% (compound 1 µM); 110% and 62.9% and 53.1% (compound 3.16 µM); 43.5% and 20.1% and 21.9% (compound 10 µM). Besides, the pIC50 (curve of compound) is 5.06 and 5.36 and 5.45.
Turning to `CC(C)(O)C1CCC(Nc2ccc3ncc(-c4cccc(C(F)(F)F)c4)n3n2)CC1` (stereo unspecified), the viability, T/C was 100% and 101% and 106% (compound 0.0316 µM); 76.5% and 92.8% and 98.9% (compound 0.1 µM); 60.8% and 103% and 99.9% (compound 0.316 µM); 57.9% and 71.8% and 90% (compound 1 µM); 53.2% and 7.83% and 15.9% (compound 3.16 µM); 49.5% and 12.5% and 13.8% (compound 10 µM). Moreover, under “curve of compound”, the pIC50 is < 5.00 and 5.82 and 5.73.
Regarding `CCCS(=O)(=O)Nc1ccc(F)c(C(=O)c2c[nH]c3ncc(-c4ccc(Cl)cc4)cc23)c1F`, the viability, T/C by setting is: (compound 0.0316 µM) 96.1% and 95.7% and 105%; (compound 0.1 µM) 90.8% and 96.3% and 99.1%; (compound 0.316 µM) 94.7% and 102% and 103%; (compound 1 µM) 71.9% and 107% and 96.1%; (compound 3.16 µM) 53.8% and 108% and 106%; (compound 10 µM) 20.2% and 54.8% and 54.9%. Further, the pIC50 (curve of compound) is 5.46 and < 5.00.
In the case of `COc1ncnc(C2CC2)c1-c1ncc2cnn(Cc3ccc(-c4nc(C(F)(F)F)cn4C(C)C)cc3)c2n1`, the viability, T/C is, setting by setting: (compound 0.0316 µM) 100% and 106% and 101%; (compound 0.1 µM) 101% and 109% and 97.2%; (compound 0.316 µM) 100% and 90.9% and 94.3%; (compound 1 µM) 104% and 89% and 94.3%; (compound 3.16 µM) 98.7% and 81.9% and 104%; (compound 10 µM) 98.1% and 57.4% and 89.5%. Moreover, the pIC50 (curve of compound) was < 5.00.
In the case of `O=C(NO)c1cnc(N2CCN(S(=O)(=O)c3ccc4ccccc4c3)CC2)nc1`, the viability, T/C is 84.3% and 92.9% and 85.8% (compound 0.0316 µM); 81.2% and 79.9% and 84.2% (compound 0.1 µM); 84% and 62.6% and 64.7% (compound 0.316 µM). Besides, the pIC50 (curve of compound) was 5.75 and 6.40 and 6.36.
For the compound `CC(C)n1c(=O)n(C)c2cnc3cc(F)c(-c4ccc(OCCCN5CCCCC5)nc4)cc3c21` + CN(C)c1ccc(Nc2c3ccc(NC(=O)CCN4CCCC4)cc3nc3cc(NC(=O)CCN4CCCC4)ccc23)cc1, the pIC50 is < 5.00 under setting [1]; < 5.00 under setting [2]; < 5.00 under setting [3]; < 5.00 under setting [4]; < 5.00 under setting [5]; < 5.00 under setting [6]. Also, the viability, T/C by setting is: under setting [7], 108%; under setting [8], 98.2%; under setting [9], 118%; under setting [10], 116%; under setting [11], 122%; under setting [12], 91.8%. The viability, T/C reads like this: under setting [13], 105%; under setting [14], 112%; under setting [15], 115%; under setting [16], 119%; under setting [17], 113%; under setting [18], 91.9%. Further, the viability, T/C was 94.5% under setting [19]; 113% under setting [20]; 115% under setting [21]; 122% under setting [22]; 117% under setting [23]; 100% under setting [24]. The viability, T/C was 101% under setting [25]; 105% under setting [26]; 111% under setting [27]; 113% under setting [28]; 109% under setting [29]; 99.6% under setting [30]. Besides, the viability, T/C was 105% under setting [31]; 113% under setting [32]; 121% under setting [33]; 108% under setting [34]; 117% under setting [35]; 83.5% under setting [36]. For the same compound, the viability, T/C was 100% under setting [37]; 92% under setting [38]; 99% under setting [39]; 112% under setting [40]; 112% under setting [41]; 59.4% under setting [42].
`CC1COCCN1c1cc(C2(S(C)(=N)=O)CC2)nc(-c2ccnc3[nH]ccc23)n1` (stereo unspecified) + CN(C)c1ccc(Nc2c3ccc(NC(=O)CCN4CCCC4)cc3nc3cc(NC(=O)CCN4CCCC4)ccc23)cc1: the negative logarithm of the IC50 (pIC50) is, setting by setting: under setting [1], < 5.00; under setting [2], < 5.00; under setting [3], < 5.00; under setting [4], < 5.00; under setting [5], < 5.00; under setting [6], < 5.00. Moreover, the viability, T/C is, setting by setting: under setting [7], 93.8%; under setting [8], 90%; under setting [9], 92.4%; under setting [10], 86.8%; under setting [11], 89.7%; under setting [12], 65%. Besides, the viability, T/C was 97.1% under setting [13]; 97.4% under setting [14]; 89.9% under setting [15]; 94.7% under setting [16]; 79.9% under setting [17]; 64.4% under setting [18]. Also, the viability, T/C under setting [19] was 93.3%; the viability, T/C under setting [20] is 107%; the viability, T/C under setting [21] is 97.8%; the viability, T/C under setting [22] is 100%; the viability, T/C under setting [23] is 93.4%; the viability, T/C under setting [24] was 64.3%. Moreover, the viability, T/C under setting [25] is 100%; the viability, T/C under setting [26] is 107%; the viability, T/C under setting [27] is 102%; the viability, T/C under setting [28] is 86.8%; the viability, T/C under setting [29] was 84.5%; the viability, T/C under setting [30] is 67.6%. The viability, T/C was 105% under setting [31]; 98.9% under setting [32]; 104% under setting [33]; 93.5% under setting [34]; 88.6% under setting [35]; 62.4% under setting [36]. Also, the viability, T/C is 97.3% under setting [37]; 98.6% under setting [38]; 115% under setting [39]; 106% under setting [40]; 81.8% under setting [41]; 63.7% under setting [42].

Values taken from PubChem BioAssay AID2060510 (Molecular Pharmacology Branch, DTP, NCI, 2025).
